# Patent EP0002400A1, “Thiazole derivatives, their preparation, intermediates and their use in therapeutics” (SYNTHELABO, priority 1977, dated 1979)
# System: pointes ponto-géniculo-occipitales (P.G.O.)
# Experiment: Reserpine-induced ponto-geniculo-occipital (PGO) spikes in the curarized cat
# Type: in vivo, chat
# Settings: Felis catus, iv, 0.5 h; dose reducing number of PGO spikes by 50%; cat given réserpine 0,75 mg/kg i.p.; increasing i.v. doses every 30 min, 4H30 after réserpine; read-out: P G O DE 50
# Excerpt: Par ailleurs in a étudié l'action des drogues sur les pointes pontc-géniculo-occipitales lors du syndrome réser- pinique chez le chat curarisé, afin de mettre en évidence les propriétés antidépressives des composés.
# Che= le chat, on enregistre une activité spécifique au niveau du pont, du noyau genouillé latéral et du cortex occipital qui fut appelée pointes ponto-géniculo-occipitales (P.G.O.).
# Cette activité spontanée, (pointes P.G.O.), apparaissant lors du =ycle veille-sommeil, peut être induite par la réserpiné, agent pharmacologique diminuant le taux des monoamines cérébrales.
# Cette activité électroencéphalographique, modulée par des mécanismes neuronaux sous le contrôle de neurotransmetteurs sy=aptiques, constitue donc un test pharmacologique pour l'étude de l'action centrale des drogues.
# Toutes les expériences sont réalisées de manière aiguë sur des chats des deux sexes de 2 à 3 kg.
# Avant le débtt de la préparation chirurgicale effectuée scis narcose à l'éther, l'animal reçoit une injection in- trapéritonéale de 0,75 mg/kg i.p. de réserpine.
# Le chat est intubé pour permettre une ventilation artificielle.
# Un anesthésique local (xylocalne à 2%) est injecté au niveau des points de pression et des incisions.
# Des canules sont placées au niveau de la veine fémorale, pour l'injection des produits et l'infusion d'un agent curarisant, la gallamine triethiodide (Flaxédil^R), et de l'artère fémorale pour l'enregistrement de la pression artérielle.
# Des électrodes monopolaires sont vissées α- niveau cortical et des électrodes bipolaires coaxiales sont placées sté- réotaxiquement au niveau des noyaux genouillés latéraux.
# L'animal curarisé et ventilé artificiellement est maintenu à température constante tout au long de l'expérience.
# L'électroencéphalogramme, l'électrocardiogramme et la pression artérielle sont enregistrés à l'aide d'un polygraphe : Grass modèle 79 D.
# Des doses croissantes (0,1; 0,3; 1; 3; 10 et 30 mg/kg) des produits à étudier sont injectées par voie intraveineuse toutes les 30 minutes, 4H30 après l'administration de la réserpine.
# Le nombre des pointes P.G.O. est comptabilisé automatiquement par périodes de 10 minutes et exprimé en pourcentage par périodes de 30 minutes en prenant la valeur obtenue lors des 30 minutes de contrôle comme référence (100%).
# La dose efficace réduisant de 50% (DE 50) le nombre des pointes P.G.O. est calculée à l'aide d'une courbe de regression semi-logarithmique.
row,Compound,ED50 [mg/kg]
1,"C1=C(CSc2ccccc2)N2CCN=C2S1 [compound 1, Chlorhydratede phénylthiométhyl-3 dihydro-5,6 imidazo [2,1 - b] thiazole]",0.4
2,Cc1ccc(OCC2=CSC3=NCCN23)cc1 [compound 12],0.8
3,Clc1cccc(OCC2=CSC3=NCCN23)c1 [compound 9],1
4,C1=C(COc2ccccc2-c2ccccc2)N2CCN=C2S1 [compound 31],0.24
5,Brc1ccccc1OCC1=CSC2=NCCN12 [compound 18],0.14
6,"Cc1ccccc1OCC1=CSC2=NCCN12 [compound 10, Chlorhydratede (méthyl-2 phénoxy-méthyl)-3 dihydro-5,6 imidazo-[2,1-b] thiazole]",0.3
7,Clc1ccccc1OCC1=CSC2=NCCN12 [compound 11],0.24
8,COc1ccc(OCC2=CSC3=NCCN23)cc1 [compound 6],1
9,COc1ccccc1OCC1=CSC2=NCCN12 [compound 3],0.4
10,CCOc1ccccc1OCC1=CSC2=NCCN12 [compound 24],0.5
11,"C1=C(COc2ccccc2)N2CCN=C2S1 [compound 5, Chlorhydrate du phénoxyméthyl-3 dihydro-5,6 imidazo [2,1-b] thiazole]",1.2
12,FC(F)(F)c1ccccc1OCC1=CSC2=NCCN12 [compound 21],0.2
